What was measured:
[1] = Rat pharmacokinetic parameters in rat plasma; assay type: in vivo; conditions: male SD rats; for bioavailability: PO 10 mg/kg vs iv 1 mg/kg, read-out: F (%) oral bioavailability
Method: Healthy male SD rats aged 6-9 weeks were selected and randomly divided into two groups, with 3 rats in each group. One group was given 1 mg/kg of the test compound by intravenous injection, and the other group was given 10 mg/kg of the test compound by gavage. Whole blood was collected from the animals in the intravenous group and the gavage group before administration and 0.083, 0.25, 0.5, 1.0, 2.0, 4.0, 7.0, 10.0, and 24.0 h after administration and centrifuged to obtain plasma samples.
All biological samples were quantitatively analyzed using the LC-MS/MS method. Pharmacokinetic parameters were calculated using the non-compartmental model linear-log trapezoidal method using WinNonlinTMVersion7.0 (Pharsight, Mountain View, CA) pharmacokinetic software. AUC0-last represents the area under the plasma concentration-time curve from time point zero to the last detectable concentration time point; PO represents oral administration; iv represents intravenous, Cmax represents the peak concentration, and F % represents oral bioavailability.

ICR mice [2] = assay: Pentobarbital sodium synergistic sleep test; assay type: in vivo; conditions: male ICR mice, pentobarbital sodium 45 mg/kg ip, Mean±SD
Method: Male ICR mice aged 6-9 weeks were randomly divided into groups based on body weight balance, with 8 mice per group, and the groups were given blank vehicle and 3, 10, and 30 mg/kg of the test compound, respectively. After 5 min, pentobarbital sodium was intraperitoneally injected at 45 mg/kg. The moments when righting reflexes disappeared and the moments when righting reflexes reappeared in mice were recorded. Sleep latency=moment when righting reflex disappeared−moment when pentobarbital sodium was administered, and sleep duration=moment when righting reflex reappeared−moment when righting reflex disappeared. […] Experimental data were expressed as mean±standard deviation (Mean±SD). One-way ANOVA analysis was performed using SPSS 21.0 statistical software, and pairwise comparisons were performed using Dunnett's test, with p<0.05 represented by *.

OX1 receptor = OX1 receptor (Homo sapiens (Human), UniProt O43613); assay: In vitro activity test (Cisbio IP-one, CHO-K1-OX1 cells, antagonism of EC80 Orexin A); assay type: cell-based
Method: (§1) (1) Preparation of a reaction buffer (1×Stimulation buffer) required for the experiment: The 5×Stimulation buffer and ddH2O in the Cisbio IP-one kit were diluted in a ratio of 1:4 for later use.
(§2) (2) Compound preparation: The compound was diluted with DMSO to obtain a 5 mM stock solution, followed by a 3.16-fold dilution to obtain 10 gradients, and then the prepared compound was diluted with the Stimulation buffer to the corresponding concentrations (4×) for later use.
(§3) (3) Cell preparation: CHO-K1-OX1 and CHO-K1-OX2 cells on the culture dish were digested with trypsin, and the cells were washed off with culture medium and collected into 5 mL centrifuge tubes. The cells were centrifuged at 1000 rpm for 5 min, and the supernatant was discarded. 3 mL of PBS was added, and the mixture was gently pipetted to be mixed well. The cells were centrifuged again at 1000 rpm for 5 min, and the supernatant was discarded. The cells were resuspended in 1×Stimulation buffer and counted using a Countstar cell counter, and the cell density was adjusted to 1.71×10^6 cells/mL for later use.
(§4) (4) Cell addition: The cell suspensions were added to assay plates at 7 μL/well (i.e., about 12,000 cells/well).
(§5) (5) Compound addition: The compound diluted with the Stimulation buffer was added to the assay plates described above at 3.5 μL/well.
(§6) (6) Reaction and incubation: After gentle shaking, the assay plates were incubated at 37° C. for 30 min.
(§7) (7) EC80 agonist addition: 4×Orexin A (OX1 receptor) and 4×Orexin 2 receptor agonist (OX2 receptor) solutions of EC80 were added at 3.5 μL/well.
(§8) (8) Reaction and incubation: After gentle shaking, the assay plates were incubated at 37° C. for 45 min.
(§9) (9) Detection reagent addition: IP1-d2 and Anti-IP1 cryptate were separately diluted in a 1:20 ratio with the Lysis & detection buffer in the Cisbio IP-one detection kit, and the diluted IP1-d2 and Anti-IP1 cryptate described above were added to the assay plates, each at 3 μL/well. After shaking, the assay plates were left to stand at room temperature for 60 min.
(§10) (10) Experimental readings: The plate was read on Envision, readings from the 665 nm and 615 nm channels were taken, and the ratio of 665 nm/615 nm readings was calculated.
(§11) Based on the antagonistic effect values of the compound sample at different concentration test points, antagonistic curves of the compound sample against the orexin receptors were fitted using GraphPad Prism software, and the IC50 was calculated.

ICR mice [3] = assay: Autonomous activities of mice; assay type: in vivo; conditions: male ICR mice; for Inhibition rate (%): vs vehicle; for Movement distance (m): within 60 min, Mean±SD
Method: Male ICR mice aged 6-9 weeks were randomly divided into groups based on body weight balance, with 8 or 9 mice per group, and the groups were given blank vehicle and 10, 30, and 100 mg/kg of the test compound, respectively. The animals were placed in a test chamber immediately after administration, and the activity distances of the animals within 60 min were recorded and analyzed with Top Scan Version 3.0. […] Experimental data were expressed as mean±standard deviation (Mean±SD). One-way ANOVA analysis was performed using SPSS 21.0 statistical software, and pairwise comparisons were performed using Dunnett's test, with p<0.05 represented by *.

OX2 receptor = OX2 receptor (Homo sapiens (Human), UniProt O43614); assay: In vitro activity test (Cisbio IP-one, CHO-K1-OX2 cells, antagonism of EC80 agonist); assay type: cell-based
Method: as §1, §2, §3, §4, §5, §6, §7, §8, §9, §10, §11

OX2 receptor, sequence (O43614 whole entry): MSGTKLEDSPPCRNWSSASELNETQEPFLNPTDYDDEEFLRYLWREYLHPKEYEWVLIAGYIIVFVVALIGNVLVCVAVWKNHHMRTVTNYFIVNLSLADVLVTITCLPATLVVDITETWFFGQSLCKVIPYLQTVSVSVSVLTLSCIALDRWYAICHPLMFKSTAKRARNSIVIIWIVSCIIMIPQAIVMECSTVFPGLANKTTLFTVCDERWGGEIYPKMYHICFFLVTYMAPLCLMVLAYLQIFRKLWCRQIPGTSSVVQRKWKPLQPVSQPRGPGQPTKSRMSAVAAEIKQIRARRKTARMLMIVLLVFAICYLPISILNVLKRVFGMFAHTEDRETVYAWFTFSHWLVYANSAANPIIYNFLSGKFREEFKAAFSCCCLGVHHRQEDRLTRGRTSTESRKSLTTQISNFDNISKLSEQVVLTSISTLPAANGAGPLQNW
OX1 receptor, sequence (O43613 whole entry): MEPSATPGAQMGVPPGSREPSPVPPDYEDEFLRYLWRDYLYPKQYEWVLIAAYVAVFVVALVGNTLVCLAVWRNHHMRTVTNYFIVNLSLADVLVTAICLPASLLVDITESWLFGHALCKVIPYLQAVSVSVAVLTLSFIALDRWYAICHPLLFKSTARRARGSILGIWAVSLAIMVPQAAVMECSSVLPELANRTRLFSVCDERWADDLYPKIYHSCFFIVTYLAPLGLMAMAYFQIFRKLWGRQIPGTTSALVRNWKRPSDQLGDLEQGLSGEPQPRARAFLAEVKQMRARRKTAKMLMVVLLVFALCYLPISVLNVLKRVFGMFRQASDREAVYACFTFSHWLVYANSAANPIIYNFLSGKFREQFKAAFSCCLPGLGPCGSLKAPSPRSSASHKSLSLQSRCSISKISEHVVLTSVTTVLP

| Structure (SMILES) | AUC(0-t) ([1]; PO 10 mg/kg) [ng·h/mL] | Cmax ([1]; PO 10 mg/kg) [ng/mL] | bioavailability [1] [%] | AUC(0-t) ([1]; iv 1 mg/kg) [ng·h/mL] | Cmax ([1]; iv 1 mg/kg) [ng/mL] | Sleep duration (ICR mice [2]; 3 mg/kg) [min] | Sleep latency (ICR mice [2]; 3 mg/kg) [min] | Sleep duration (ICR mice [2]; 10 mg/kg) [min] | Sleep latency (ICR mice [2]; 10 mg/kg) [min] | Sleep duration (ICR mice [2]; 30 mg/kg) [min] | Sleep latency (ICR mice [2]; 30 mg/kg) [min] | IC50 (OX1 receptor) [nM] | Inhibition rate (%) (ICR mice [3]; 10 mg/kg) | Movement distance (m) (ICR mice [3]; 10 mg/kg) | Inhibition rate (%) (ICR mice [3]; 30 mg/kg) | Movement distance (m) (ICR mice [3]; 30 mg/kg) | Inhibition rate (%) (ICR mice [3]; 100 mg/kg) | Movement distance (m) (ICR mice [3]; 100 mg/kg) | IC50 (OX2 receptor) [nM] |
| --- | --- | --- | --- | --- | --- | --- | --- | --- | --- | --- | --- | --- | --- | --- | --- | --- | --- | --- | --- |
| Cc1cc(C)nc(N2C[C@H]3CN(C(=O)c4c(-c5ncccc5F)cn5ccccc45)C[C@H]3C2)n1 [Example 3, ((3aR,6aS)-5-(4,6-dimethylpyrimidin-2-yl)hexahydropyrrolo[3,4-c]pyrrol-2(1H)-yl)(2-(3-fluoropyridin-2-yl)indolizin-1-yl)methanone] | 2000 | 2780 | 56.3 | 355 | 875 | 57.88 ± 23.72 | 15.21 ± 4.60 | 62.73 ± 29.84 | 17.72 ± 6.04 | 63.15 ± 34.38 | 24.28 ± 8.97 | > 1000 | −5.22 | 68.58 ± 24.42 | 9.82 | 58.78 ± 18.31 | 40.63 | 38.69 ± 13.98 | < 100 |
| Cc1cc(C)nc(N2C[C@H]3CN(C(=O)c4c(-c5cccs5)nn5ccccc45)C[C@H]3C2)n1 [Example 5, ((3aR,6aS)-5-(4,6-dimethylpyrimidin-2-yl)hexahydropyrrolo[3,4-c]pyrrol-2(1H)-yl)(2-(thiophen-2-yl)pyrazolo[1,5-a]pyridin-3-yl)methanone] | – | – | – | – | – | – | – | – | – | – | – | > 1000 | 2.37 | 63.64 ± 33.70 | 46.97 | 34.56 ± 10.71 | 49.17 | 33.13 ± 14.64 | < 100 |
| Cc1cc(C)nc(N2C[C@H]3CN(C(=O)c4c(-c5ccccn5)nn5cc(F)ccc45)C[C@H]3C2)n1 [Example 30, ((3aR,6aS)-5-(4,6-dimethylpyrimidin-2-yl)hexahydropyrrolo[3,4-c]pyrrol-2(1H)-yl)(6-fluoro-2-(pyridin-2-yl)pyrazolo[1,5-a]pyridin-3-yl)methanone] | 353 | 668 | 24.6 | 143 | 439 | 62.34 ± 17.87 | 5.03 ± 0.51 | 66.79 ± 14.88 | 5.17 ± 0.81 | 65.61 ± 19.83 | 6.52 ± 5.25 | > 1000 | – | – | – | – | – | – | < 100 |
| Cc1cc(C)nc(N2C[C@H]3CN(C(=O)c4c(-c5ccncc5)nn5ccccc45)C[C@H]3C2)n1 [Example 34, ((3aR,6aS)-5-(4,6-dimethylpyrimidin-2-yl)hexahydropyrrolo[3,4-c]pyrrol-2(1H)-yl)(2-(pyridin-4-yl)pyrazolo[1,5-a]pyridin-3-yl)methanone] | 560 | 925 | 25.3 | 221 | 715 | – | – | – | – | – | – | > 1000 | 8.19 | 59.84 ± 19.89 | 28.13 | 46.84 ± 16.61 | 50.36 | 32.36 ± 20.35 | < 100 |
| Cc1cc(C)nc(N2C[C@H]3CN(C(=O)c4c(-c5cccnc5)nn5ccccc45)C[C@H]3C2)n1 [Example 36, [(3aR,6aS)-5-(4,6-dimethylpyrimidin-2-yl)hexahydropyrrolo[3,4-c]pyrrol-2(1H)-yl][2-(pyridin-3-yl)pyrazolo[1,5-a]pyridin-3-yl]methanone] | – | – | – | – | – | 50.35 ± 9.35 | 10.21 ± 4.49 | 38.89 ± 10.66 | 10.58 ± 5.65 | 56.19 ± 27.74 | 8.84 ± 3.67 | > 1000 | 32.08 | 44.27 ± 13.76 | 34.37 | 42.78 ± 20.27 | 57.33 | 27.81 ± 19.12 | < 100 |
| Cc1cc(C)nc(N2C[C@H]3CN(C(=O)c4c(-c5cccs5)nn5cc(F)ccc45)C[C@H]3C2)n1 [Example 37, [(3aR,6aS)-5-(4,6-dimethylpyrimidin-2-yl)hexahydropyrrolo[3,4-c]pyrrol-2(1H)-yl][6-fluoro-2-(thiophen-2-yl)pyrazolo[1,5-a]pyridin-3-yl]methanone] | – | – | – | – | – | – | – | – | – | – | – | > 1000 | 5.03 | 61.90 ± 16.82 | 37.27 | 40.89 ± 21.03 | 39.52 | 39.42 ± 13.92 | < 100 |
